Calls of active or inactive are those of the source. The rule behind the calls is not given here.
Legend:
SK-OV-3 [1] = assay: Activity of ceramidase in human SKOV3 cells assessed as formation of 7-(((3R,4S)-4-amino-3,5- dihydroxypentyl)oxy)-2H-chromen-2-one at 16 uM after 1 to 24 hrs at 37 degC by HPLC; assay type: cell-based; details: TDE = time-dependent effect
SK-OV-3 [2] = assay: Activity of ceramidase in human SKOV3 cells assessed as formation of 7-(((3R,4S)-4-amino-3,5- dihydroxypentyl)oxy)-2H-chromen-2-one at 16 uM after 24 hrs at 37 degC by HPLC; assay type: cell-based
SK-OV-3 [3] = assay: Activity of ceramidase in human SKOV3 cells assessed as formation of 7-(((3R,4S)-4-amino-3,5- dihydroxypentyl)oxy)-2H-chromen-2-one at 16 uM after 1 to 24 hrs at 37 degC by umbelliferone formation based fluorescence intensity assay; assay type: cell-based; details: TDE = time-dependent effect
[4] = Inhibition of ceramidase in human SKOV3 cells assessed as hydrolysis of N-((2S,3R)-1,3-dihydroxy-5-((2-oxo-2H-chromen-7-yl)oxy)pentan-2-yl)palmitamide at 16 uM after 24 hrs at 37 degC by HPLC; assay type: cell-based; details: sk-ov-3
[5] = Inhibition of ceramidase in human SKOV3 cells assessed as hydrolysis of N-((2S,3R)-1,3-dihydroxy-5-((2-oxo-2H-chromen-7-yl)oxy)pentan-2-yl)palmitamide at 16 uM after 24 hrs at 37 degC by umbelliferone formation based fluorescence intensity assay; assay type: cell-based, SK-OV-3
[6] = Inhibition of rat liver ceramidase assessed as hydrolysis of N-((2S,3R)-1,3-dihydroxy-5-((2-oxo-2H-chromen-7-yl)oxy)pentan-2-yl)palmitamide
[7] = Inhibition of pig liver ceramidase assessed as hydrolysis of N-((2S,3R)-1,3-dihydroxy-5-((2-oxo-2H-chromen-7-yl)oxy)pentan-2-yl)palmitamide; design: species or system Sus scrofa

Q: Which Activity (SK-OV-3 [1]) does the source give for `CCCCCCCCCCCCCCCC(=O)N[C@@H](CO)[C@H](O)CCOc1ccc2ccc(=O)oc2c1` here?
A: Its Activity is “tde”.

Q: What about the Activity (SK-OV-3 [2]) of the same compound?
A: Its Activity is “Active”.

Q: And the Activity (SK-OV-3 [3])?
A: The Activity was “tde”.

Q: For `CCCCCCCC/C=C\CCCCCCCC(=O)NCCO` [OLEOYLETHANOLAMIDE], which IC50 [4] is on record?
A: Its IC50 is “Dose-dependent effect”.

Q: What about the IC50 ([4]; read-out: IC50) of the same compound?
A: Its IC50 is 24 µM.

Q: What about the IC50 ([5]; Homo sapiens, SK-OV-3, 24 h, read-out: IC50) of the same compound?
A: The IC50 was 28 µM.

Q: And the IC50 ([5]; sk-ov-3)?
A: Its IC50 is “Dose-dependent effect”.

Q: And the IC50 [6]?
A: Its IC50 is 71 µM.

Q: And the IC50 [7]?
A: The IC50 was 76 µM.

Source: ChEMBL document CHEMBL1156867, “Improved synthesis of a fluorogenic ceramidase substrate” (Bioorg Med Chem, 2010)
